Source: ChEMBL document CHEMBL1201862, “PubChem BioAssay data set” (2004)
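96-well plates; 48 h exposure; 5 concentrations. Endpoints by linear interpolation between flanking doses. Not reached: highest tested concentration assigned. GI50 marks 50% less growth.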 Calls of active or inactive are those of the source. Cut-off read from the data, not from the text of the source: active = GI50 up to about 1.1 µM and inactive = higher.

Key:
Test in all cases: inhibition of tumour cell growth, NCI panel, 48 h
[1] = system: SNB-78
[2] = system: SR
[3] = system: DMS-114
[4] = system: HCC 2998
[5] = system: HCT-15
[6] = system: M14
[7] = system: OVCAR-8
[8] = system: LOX IMVI
[9] = system: SN12C
[10] = system: NCI-H226
[11] = system: RXF 393
[12] = system: TK-10
[13] = system: OVCAR-3
[14] = system: SK-MEL-28
[15] = system: SW-620
[16] = system: HT-29
[17] = system: A498
[18] = system: HCT-116
[19] = system: 786-0

Measured: GI50

COC1C=CC(C(=O)[N+]2=Cc3[nH]c4ccccc4c3CC2)O1 (centres undefined)
inactive: [1] > 100 µM | [2] 30.5 µM | [3] 66.4 µM | [4] 55.6 µM | [6] > 100 µM | [7] > 100 µM | [8] > 100 µM | [9] > 100 µM | [10] 80.9 µM | [11] 61.5 µM | [12] > 100 µM | [13] 83.4 µM | [14] > 100 µM | [15] > 100 µM | [16] > 100 µM | [17] > 100 µM | [18] > 100 µM | [19] > 100 µM
78.5 µM: [5]

O=C1C2C3C=C4c5ccccc5N(c5ccccc5)C4(C2C(=O)N1c1ccccc1)C1C(=O)N(c2ccccc2)C(=O)C31 (centres undefined)
> 100 µM: [5]
inactive: [1] > 100 µM | [2] 6.35 µM | [3] > 100 µM | [4] > 100 µM | [6] > 100 µM | [7] > 100 µM | [8] > 100 µM | [9] > 100 µM | [12] > 100 µM | [14] 8.17 µM | [15] > 100 µM | [16] 6.56 µM | [17] 2.34 µM | [18] > 100 µM | [19] > 100 µM

Cc1cc(Br)ccc1/N=N/c1c(C)nn(-c2ccccc2)c1-c1ccccc1
inactive: [1] > 100 µM | [2] > 100 µM | [3] 89.5 µM | [6] > 100 µM | [7] > 100 µM | [8] 16.6 µM | [9] 97.5 µM | [11] 33.3 µM | [12] > 100 µM | [13] 99.5 µM | [14] > 100 µM | [15] 81.5 µM | [16] 44.5 µM | [17] > 100 µM | [18] 9.08 µM | [19] 58.3 µM
9.82 µM: [5]

Cc1[nH]c2ccccc2c1C1Cc2ccccc2N1C(=O)/C=C\C(=O)O (centres undefined)
inactive: [1] 61.8 µM | [2] 29.6 µM | [3] 33.4 µM | [4] 45.6 µM | [6] 57.7 µM | [8] 18.6 µM | [9] 29.3 µM | [10] 27.9 µM | [11] 30.9 µM | [12] 45.8 µM | [13] 55.2 µM | [15] 32.4 µM | [16] 66.1 µM | [17] 32.1 µM | [18] 47.1 µM | [19] 38.7 µM
> 100 µM: [5]

NNC(=O)/C(=C/c1cccc([N+](=O)[O-])c1)NC(=O)c1ccccc1
> 100 µM: [5]
inactive: [1] > 100 µM | [2] > 100 µM | [3] > 100 µM | [4] > 100 µM | [6] > 100 µM | [7] > 100 µM | [8] > 100 µM | [9] > 100 µM | [10] > 100 µM | [11] > 100 µM | [12] > 100 µM | [13] > 100 µM | [14] > 100 µM | [15] > 100 µM | [16] > 100 µM | [17] > 100 µM | [18] > 100 µM | [19] > 100 µM

CCOC(=O)C1=C(C)N(NC(=O)Nc2ccccc2)C2(N)N(NC(=O)Nc3ccccc3)C(C)=C(C(=O)OCC)C12C(=O)OCC (centres undefined)
inactive: [1] 42.4 µM | [2] 34 µM | [3] 25.5 µM | [4] 27.4 µM | [6] 33.2 µM | [7] 35.9 µM | [8] 36.2 µM | [9] 1.66 µM | [11] 3.09 µM | [12] 80.4 µM | [13] 49.2 µM | [14] 34.4 µM | [15] 69.7 µM | [16] 54.3 µM | [17] 28.2 µM | [18] 29.9 µM | [19] 45.3 µM
> 100 µM: [5]

Cc1ccc(-c2cc(-c3ccccc3)c(C#N)c(=O)[nH]2)cc1
inactive: [1] > 100 µM | [2] > 100 µM | [3] > 100 µM | [4] > 100 µM | [6] > 100 µM | [7] > 100 µM | [8] > 100 µM | [9] > 100 µM | [10] > 100 µM | [11] > 100 µM | [12] > 100 µM | [13] > 100 µM | [14] > 100 µM | [15] > 100 µM | [16] > 100 µM | [17] > 100 µM | [18] > 100 µM | [19] > 100 µM
> 100 µM: [5]

CC(C)c1cccc(=O)c(O)c1
inactive: [1] 2.1 µM | [3] 2.24 µM | [4] 9.44 µM | [6] 2.03 µM | [7] 1.72 µM | [8] 2.42 µM | [9] 5.51 µM | [10] 6.32 µM | [12] 1.25 µM | [13] 1.24 µM | [14] 1.5 µM | [15] 1.79 µM | [16] 3.07 µM | [17] 14.6 µM | [18] 1.72 µM | [19] 3.4 µM
1.54 µM: [5]
active: [2] 0.959 µM | [11] 0.299 µM
